Results on twelve compounds are retold here after ChEMBL document CHEMBL1201862, “PubChem BioAssay data set” (2004).

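Briefly, cells in 96-well plates were exposed to five compound concentrations for 48 h, and endpoints were estimated by linear interpolation. GI50 is the concentration that inhibits growth by half.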 The source made the active and inactive calls. Rule as the data show it: active = GI50 up to about 1.1 µM and inactive = higher.

Test systems include PC-3; SN12C; A498; A549; K562; HCT-15; NCI-H226; SK-MEL-2; SK-OV-3; Malme-3M; UO-31; SF-539; HL-60; U-251; MDA-MB-231; NCI/ADR-RES; IGROV-1; TK-10; MCF7.
Holding throughout (test): inhibition of tumour cell growth, NCI panel, 48 h

As for `O=C(O)/C=C\C(=O)Nc1ccccn1`, the GI50 in the experiment on PC-3 was > 100 µM (inactive); in the experiment with SN12C, > 100 µM (inactive); in the experiment on A498 it was > 100 µM (inactive); in the experiment with A549, > 100 µM (inactive); with K562 it was > 100 µM (inactive); with HCT-15, greater than 100 µM. Further, the GI50 with NCI-H226, in the experiment with SK-MEL-2, in the experiment on SK-OV-3, in the experiment on Malme-3M, in the experiment with UO-31 and in the experiment on SF-539 was > 100 µM (inactive) throughout. Besides, the GI50 in the experiment with HL-60, in the experiment on U-251, with MDA-MB-231, with NCI/ADR-RES and with IGROV-1 was > 100 µM (inactive) each time.

For the compound `CN1c2ccccc2C(=O)NC12CCN(Cc1ccccc1)CC2`, the GI50 with SN12C was 49.4 µM (inactive); in the experiment with A498 it was 57.1 µM (inactive); with A549, 56.9 µM (inactive); in the experiment on HCT-15, 42.5 µM; in the experiment on NCI-H226, 27.5 µM (inactive); with SK-OV-3 it was 84.9 µM (inactive). Also, the GI50 is 87.1 µM (inactive) in the experiment with Malme-3M; 34.6 µM (inactive) with UO-31; 50.7 µM (inactive) in the experiment with SF-539; 41 µM (inactive) in the experiment on TK-10; 30.5 µM (inactive) with HL-60; 40.1 µM (inactive) with U-251. Further, the GI50 with MDA-MB-231 is 96.6 µM (inactive); in the experiment with MCF7 it was 46 µM (inactive); in the experiment on NCI/ADR-RES, > 100 µM (inactive); in the experiment with IGROV-1 it was 69.2 µM (inactive).

For `O=[N+]([O-])C(/C=C(\Cl)n1nnc2ccccc21)=C(/Cl)n1nnc2ccccc21`, the GI50 is > 100 µM (inactive) in the experiment with PC-3; > 100 µM (inactive) in the experiment with SN12C; > 100 µM (inactive) with A498; > 100 µM (inactive) with A549; > 100 µM (inactive) in the experiment on K562; greater than 100 µM in the experiment on HCT-15. For the same compound, the GI50 in the experiment with NCI-H226, in the experiment on SK-MEL-2, with SK-OV-3, in the experiment with Malme-3M, in the experiment on UO-31 and in the experiment on SF-539 was > 100 µM (inactive) in each case. Moreover, the GI50 with TK-10, with U-251, in the experiment on MDA-MB-231, in the experiment with NCI/ADR-RES and in the experiment with IGROV-1 was > 100 µM (inactive) each time.

As for `CSc1nc(C#N)c(N)n1C`, the GI50 was > 100 µM (inactive) in the experiment with PC-3; > 100 µM (inactive) with SN12C; > 100 µM (inactive) in the experiment on A498; > 100 µM (inactive) in the experiment with A549; > 100 µM (inactive) with K562; greater than 100 µM in the experiment on HCT-15. Besides, the GI50 in the experiment with NCI-H226, with SK-MEL-2, with SK-OV-3, in the experiment on Malme-3M, in the experiment with UO-31 and in the experiment on SF-539 was > 100 µM (inactive) in each case. In addition, the GI50 with TK-10, in the experiment with HL-60, in the experiment on U-251, in the experiment on MDA-MB-231, in the experiment on NCI/ADR-RES and in the experiment with IGROV-1 was > 100 µM (inactive) in each case.

As for `Cc1cc(Cl)cc2c1NC(=O)/C2=N\Nc1ccccc1[N+](=O)[O-]`, the GI50 in the experiment with PC-3 was 38.8 µM (inactive); in the experiment on SN12C, > 100 µM (inactive); in the experiment on A498, > 100 µM (inactive); in the experiment on A549, > 100 µM (inactive); with K562 it was > 100 µM (inactive); in the experiment on HCT-15, greater than 100 µM. Moreover, the GI50 in the experiment with SK-MEL-2, with SK-OV-3, with UO-31, in the experiment on SF-539, with TK-10 and in the experiment on HL-60 was > 100 µM (inactive) throughout. The GI50 was > 100 µM (inactive) in the experiment with U-251, 66.8 µM (inactive) in the experiment on MDA-MB-231, > 100 µM (inactive) with MCF7 and 19.1 µM (inactive) with IGROV-1.

In the case of `Cc1ccc(C2(N3CCOCC3)OC(C)(C)c3cccc4cccc2c34)cc1` (configuration not stated), the GI50 in the experiment with PC-3 was 16.5 µM (inactive); in the experiment with SN12C, 16.9 µM (inactive); with A498, 17.7 µM (inactive); with A549, 12.9 µM (inactive); in the experiment with K562, 30.2 µM (inactive); with HCT-15, 17 µM. Also, the GI50 was 17.1 µM (inactive) in the experiment on NCI-H226; 15.6 µM (inactive) in the experiment on SK-MEL-2; 16.7 µM (inactive) with SK-OV-3; 16.8 µM (inactive) in the experiment with Malme-3M; 16.9 µM (inactive) with UO-31; 17.9 µM (inactive) in the experiment with SF-539. Besides, the GI50 was 17.3 µM (inactive) in the experiment on TK-10; 34.9 µM (inactive) in the experiment on HL-60; 16.5 µM (inactive) in the experiment with U-251; 16 µM (inactive) with MCF7; 15.7 µM (inactive) in the experiment with NCI/ADR-RES; 17.9 µM (inactive) with IGROV-1.

`COC(=O)[C@]12CCC(=O)N1[C@H](C(=O)O)Cc1c2[nH]c2ccccc12`: the GI50 with PC-3 is > 100 µM (inactive); in the experiment with SN12C, > 100 µM (inactive); in the experiment with A498, > 100 µM (inactive); in the experiment on A549 it was > 100 µM (inactive); in the experiment on K562 it was > 100 µM (inactive); in the experiment on HCT-15, greater than 100 µM. Besides, the GI50 with SK-MEL-2, in the experiment on SK-OV-3, in the experiment on Malme-3M, in the experiment on UO-31, with SF-539 and in the experiment with TK-10 was > 100 µM (inactive) each time. For the same compound, the GI50 in the experiment on U-251, with MDA-MB-231, in the experiment with MCF7, with NCI/ADR-RES and with IGROV-1 was > 100 µM (inactive) in each case.

Take `O=c1[nH]nc(-c2ccc3ccccc3c2)[nH]1`: the GI50 in the experiment with PC-3 was > 100 µM (inactive); in the experiment with SN12C, > 100 µM (inactive); in the experiment with A498 it was 80 µM (inactive); in the experiment on A549, > 100 µM (inactive); in the experiment on K562, > 100 µM (inactive); in the experiment on HCT-15 it was greater than 100 µM. Moreover, the GI50 in the experiment with NCI-H226 was > 100 µM (inactive); with SK-MEL-2, > 100 µM (inactive); in the experiment with Malme-3M it was > 100 µM (inactive); in the experiment with UO-31 it was 43.3 µM (inactive); with SF-539 it was > 100 µM (inactive); with TK-10 it was > 100 µM (inactive). The GI50 with HL-60 is > 100 µM (inactive); with U-251 it was > 100 µM (inactive); in the experiment with MCF7, > 100 µM (inactive); in the experiment on NCI/ADR-RES, > 100 µM (inactive); in the experiment on IGROV-1 it was 70.3 µM (inactive).

With `COc1cc(CNC(=S)CCCCCCCCCCC(C)C)ccc1O`, the GI50 in the experiment on SN12C was 92.3 µM (inactive); in the experiment with A498 it was 31.6 µM (inactive); with A549 it was 53 µM (inactive); in the experiment with K562 it was 35.2 µM (inactive); in the experiment on HCT-15, 63 µM; in the experiment on NCI-H226, 18.4 µM (inactive). Also, the GI50 is > 100 µM (inactive) with SK-OV-3; > 100 µM (inactive) in the experiment on Malme-3M; 11.9 µM (inactive) in the experiment with UO-31; > 100 µM (inactive) with SF-539; > 100 µM (inactive) with TK-10; 13.3 µM (inactive) in the experiment on HL-60. The GI50 in the experiment on U-251 is 72.1 µM (inactive); in the experiment on MDA-MB-231, > 100 µM (inactive); with MCF7, 41.5 µM (inactive); in the experiment with NCI/ADR-RES, 46.3 µM (inactive); with IGROV-1 it was 44.2 µM (inactive).

As for `Cc1ccc([S+](c2ccccc2)c2cc(C)ccc2C)cc1` (configuration not stated), the GI50 in the experiment with SN12C was 5.94 µM (inactive); in the experiment with A498 it was 0.0435 µM (active); with A549, 7.03 µM (inactive); in the experiment on K562, 0.374 µM (active); in the experiment with Malme-3M, 0.271 µM (active); in the experiment on UO-31 it was > 100 µM (inactive). For the same compound, the GI50 is 13.7 µM (inactive) in the experiment on SF-539, 1.97 µM (inactive) with HL-60 and 0.117 µM (active) with IGROV-1.

As to `CCCCc1c(C(=O)OC(C)(C)C)cc(C#Cc2cc(C(=O)OC(C)(C)C)c(CCCC)c(C(=O)OC(C)(C)C)c2)cc1C(=O)OC(C)(C)C`, the GI50 was > 100 µM (inactive) in the experiment on PC-3; > 100 µM (inactive) with SN12C; > 100 µM (inactive) in the experiment on A498; > 100 µM (inactive) with A549; greater than 100 µM in the experiment on HCT-15; > 100 µM (inactive) in the experiment on NCI-H226. In addition, the GI50 in the experiment on SK-MEL-2, with SK-OV-3, with Malme-3M, with UO-31, in the experiment with TK-10 and in the experiment with U-251 was > 100 µM (inactive) each time. In addition, the GI50 with MDA-MB-231, with MCF7, in the experiment on NCI/ADR-RES and in the experiment with IGROV-1 was > 100 µM (inactive) each time.

For `CCOC(=O)/C(=C\c1ccccc1)C(=O)O`, the GI50 with SN12C is > 100 µM (inactive); in the experiment on A498 it was > 100 µM (inactive); with A549, > 100 µM (inactive); in the experiment with K562 it was > 100 µM (inactive); in the experiment with HCT-15 it was greater than 100 µM; with NCI-H226, > 100 µM (inactive). Also, the GI50 in the experiment on SK-MEL-2, in the experiment on SK-OV-3, with Malme-3M, in the experiment with UO-31, with SF-539 and in the experiment with HL-60 was > 100 µM (inactive) in each case. Also, the GI50 in the experiment on U-251 and in the experiment with IGROV-1 was > 100 µM (inactive) in each case.
